In paper PMC6744613 (ACS chemical neuroscience, 2018):
Changes are numbered by the printed parent chain. Where two headings read alike, the source gives them in different places.

Legend:
[1] = target: COX-1 (Homo sapiens, UniProt P23219); assay: COX-1 whole-blood enzymatic immunoassay; assay type: cell-based
[2] = target: T1, COX-1 (Macaca mulatta, UniProt F6S984); assay: COX-1 whole-blood enzymatic immunoassay; assay type: cell-based; conditions: read-out: IC50 COX-1 Monkey, mean ± SD (n = 3)
T1 sequence (F6S984 25-599): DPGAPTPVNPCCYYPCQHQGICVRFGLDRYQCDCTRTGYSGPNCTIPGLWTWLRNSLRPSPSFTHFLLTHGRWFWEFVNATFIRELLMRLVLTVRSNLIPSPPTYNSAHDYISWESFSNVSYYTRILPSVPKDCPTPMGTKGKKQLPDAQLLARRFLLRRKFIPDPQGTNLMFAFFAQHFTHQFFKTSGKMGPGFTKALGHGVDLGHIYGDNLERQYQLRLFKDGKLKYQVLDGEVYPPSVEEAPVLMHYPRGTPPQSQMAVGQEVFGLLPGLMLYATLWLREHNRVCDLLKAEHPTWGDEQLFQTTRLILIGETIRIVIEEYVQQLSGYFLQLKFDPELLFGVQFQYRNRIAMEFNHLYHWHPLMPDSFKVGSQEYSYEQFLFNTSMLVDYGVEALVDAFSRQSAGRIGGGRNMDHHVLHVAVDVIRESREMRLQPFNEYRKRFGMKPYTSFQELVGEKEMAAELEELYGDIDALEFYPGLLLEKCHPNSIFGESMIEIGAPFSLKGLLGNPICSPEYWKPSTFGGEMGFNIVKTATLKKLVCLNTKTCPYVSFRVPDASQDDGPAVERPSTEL

[3] = target: T2, COX-2 (Homo sapiens, UniProt P35354); assay: COX-2 whole-blood enzymatic immunoassay; assay type: cell-based
T2 sequence (P35354 18-604): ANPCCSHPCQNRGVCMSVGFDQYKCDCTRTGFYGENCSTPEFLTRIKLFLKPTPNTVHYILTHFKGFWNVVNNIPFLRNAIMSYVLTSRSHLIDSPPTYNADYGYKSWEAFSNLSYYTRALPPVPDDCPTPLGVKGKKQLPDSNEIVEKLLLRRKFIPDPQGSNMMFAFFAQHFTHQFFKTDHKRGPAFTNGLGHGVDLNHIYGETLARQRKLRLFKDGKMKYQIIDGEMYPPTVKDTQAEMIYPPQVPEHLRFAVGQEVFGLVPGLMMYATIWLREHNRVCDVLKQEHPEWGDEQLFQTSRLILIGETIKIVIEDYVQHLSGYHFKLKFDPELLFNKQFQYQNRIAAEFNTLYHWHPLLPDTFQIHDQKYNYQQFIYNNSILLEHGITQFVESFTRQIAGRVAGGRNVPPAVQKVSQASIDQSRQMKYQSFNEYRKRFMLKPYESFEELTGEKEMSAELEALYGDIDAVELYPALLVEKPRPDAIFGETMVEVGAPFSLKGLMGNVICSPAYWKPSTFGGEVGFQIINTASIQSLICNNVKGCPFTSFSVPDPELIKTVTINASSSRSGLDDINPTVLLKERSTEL

[4] = target: T3, COX-2 (Macaca mulatta, UniProt F7BWZ9); assay: COX-2 whole-blood enzymatic immunoassay; assay type: cell-based; conditions: read-out: IC50 COX-2 Monkey, mean ± SD (n = 3)
T3 sequence (F7BWZ9 18-604): T2 sequence (P35354 18-604) with H7Y, F49L, A101V, L150F, S163T, N191K, A208D, R211H, T363N, G570R

[5] = target: T4, COX-1 (Rattus norvegicus, UniProt Q63921); assay: COX-1 whole-blood enzymatic immunoassay; assay type: cell-based
T4 sequence (Q63921 27-602): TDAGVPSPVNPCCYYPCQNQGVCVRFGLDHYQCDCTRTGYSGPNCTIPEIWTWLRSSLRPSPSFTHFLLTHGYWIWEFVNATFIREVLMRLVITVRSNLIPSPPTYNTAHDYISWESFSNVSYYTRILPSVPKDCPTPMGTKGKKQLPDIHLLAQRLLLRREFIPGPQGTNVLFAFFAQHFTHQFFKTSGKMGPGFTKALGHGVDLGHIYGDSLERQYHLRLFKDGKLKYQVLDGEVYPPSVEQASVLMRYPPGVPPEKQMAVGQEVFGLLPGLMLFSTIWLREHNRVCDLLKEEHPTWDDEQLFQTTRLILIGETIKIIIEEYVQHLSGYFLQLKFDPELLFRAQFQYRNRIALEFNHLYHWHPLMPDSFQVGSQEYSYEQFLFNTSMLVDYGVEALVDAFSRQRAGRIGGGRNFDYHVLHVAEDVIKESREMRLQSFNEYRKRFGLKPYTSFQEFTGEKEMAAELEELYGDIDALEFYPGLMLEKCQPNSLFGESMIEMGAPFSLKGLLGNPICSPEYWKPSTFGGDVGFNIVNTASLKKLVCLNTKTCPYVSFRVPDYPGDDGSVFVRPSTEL

[6] = test system: human COX-1; conditions: read-out: IC50 for human COX-1 (reported); human whole blood; cited from earlier work
[7] = read-out: IC50 COX-1 Human, human whole blood, mean ± SD (n = 3)

COX-1 (Homo sapiens, UniProt P23219), sequence (P23219 24-599): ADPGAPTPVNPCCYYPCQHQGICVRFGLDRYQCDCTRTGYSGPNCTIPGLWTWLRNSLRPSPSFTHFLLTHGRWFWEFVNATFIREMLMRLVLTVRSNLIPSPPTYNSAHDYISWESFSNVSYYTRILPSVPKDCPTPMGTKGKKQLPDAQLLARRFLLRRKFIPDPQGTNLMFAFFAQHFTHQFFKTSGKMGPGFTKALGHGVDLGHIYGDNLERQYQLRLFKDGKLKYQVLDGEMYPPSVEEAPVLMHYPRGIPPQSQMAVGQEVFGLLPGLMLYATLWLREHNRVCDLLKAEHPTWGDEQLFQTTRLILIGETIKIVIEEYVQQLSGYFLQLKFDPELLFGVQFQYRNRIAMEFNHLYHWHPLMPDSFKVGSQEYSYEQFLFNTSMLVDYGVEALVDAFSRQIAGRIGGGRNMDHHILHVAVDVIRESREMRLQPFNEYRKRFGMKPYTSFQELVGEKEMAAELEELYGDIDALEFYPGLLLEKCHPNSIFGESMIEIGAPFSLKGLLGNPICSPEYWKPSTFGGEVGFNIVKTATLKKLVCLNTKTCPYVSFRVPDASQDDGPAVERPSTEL

Row | SMILES | IC50 [1] [nM] | IC50 [2] [nM] | IC50 [3] [nM] | IC50 [1, 7] [nM] | IC50 [4] [nM] | IC50 [5] [nM] | IC50 ([3]; read-out: IC50 COX-2 Human, human whole blood, mean ± SD (n = 3)) [nM] | IC50 [6] [nM]
1 | COc1ccc(-n2nc(C(F)(F)F)nc2-c2ccc(F)nc2)cc1 [Inhibitor 24, 2-Fluoro-5-(1-(4-methoxyphenyl)-3-(trifluoromethyl)-1H-1,2,4-triazol-5-yl)pyridine] | 2 ± 0.1 | 10 ± 3 | > 1000 | – | – | – | – | –
2 | COc1cc(NCc2cccs2)nc(-c2ccc(S(C)(=O)=O)cc2)n1 [Inhibitor 34, [2-(4-Methanesulfonylphenyl)-6-methoxypyrimidin-4-yl]thiophen-2-ylme-thylamine, reference compound] | – | > 1000 | – | > 1000 | 1 ± 0.5 | – | – | –
3 | COc1ccc(-c2nc(S(=O)(=O)CF)nn2-c2ccc(OC)cc2)cc1 [Inhibitor 28, 3-(Fluoromethylsulfonyl)-1,5-bis(4-methoxyphenyl)-1H-1,2,4-triazole] | 3 ± 1.2 | 25 ± 3 | > 1000 | – | – | – | – | –
4 | C[C@H](C(=O)O)c1cccc(C(=O)c2ccccc2)c1 [Inhibitor 4, (S)-ketoprofen, reference compound] | – | 40 ± 17 | – | – | 400 ± 113 | – | – | –
5 | COc1ccc(-c2nc(OCC(F)(F)F)nn2-c2ccc(OC)cc2)cc1 [Inhibitor 20, 1,5-Bis(4-methoxyphenyl)-3-(2,2,2-trifluoroethoxy)-1H-1,2,4-triazole] | – | 1 ± 0.3 | – | – | > 1000 | 15 | – | –
6 | COc1ccc(-n2nc(OC)nc2-c2ccccc2)cc1 [Inhibitor 31, 3-Methoxy-1-(4-methoxyphenyl)-5-phenyl-1H-1,2,4-triazole] | – | 3 ± 2.5 | – | 3 ± 0.06 | – | – | > 1000 | –
7 | COc1ccc(-n2nc(OCF)nc2-c2ccccc2)cc1 [Inhibitor 32, 3-(Fluoromethoxy)-1-(4-methoxyphenyl)-5-phenyl-1H-1,2,4-triazole] | 1.7 ± 0.6 | 100 | 100 ± 25 | – | – | – | – | –
8 | COc1ccc(-c2nc([S+]([O-])CF)nn2-c2ccc(OC)cc2)cc1 (stereo not drawn) [Inhibitor 27, 3-(Fluoromethylsulfinyl)-1,5-bis(4-methoxyphenyl)-1H-1,2,4-triazole] | 3 ± 1.7 | 5 ± 2 | > 1000 | – | 545 ± 102 | – | – | –
9 | COc1ccc(-c2nc(SCF)nn2-c2ccc(OC)cc2)cc1 [Inhibitor 26, 3-(Fluoromethylthio)-1,5-bis(4-methoxyphenyl)-1H-1,2,4-triazole] | 5 ± 3.9 | 6.4 ± 0.8 | > 1000 | – | – | – | – | –
10 | COc1ccc(-c2nc(OC)nn2-c2ccc(OC)cc2)cc1 [Inhibitor 5] | – | 4.6 ± 1.3 | – | – | > 1000 | – | – | 4.9
